This note sets out measurements from patent publication US9169259B2, “Imidazopyridazine compounds” (Hoffmann-La Roche Inc., priority 2011, dated 2015).

The target in this assay is recombinant human SYK360-635 (Homo sapiens (Human), UniProt P43405). Put plainly: SYK kinase assay (33P ATP filtration, IC50 of SYK inhibition). The format is biochemical. The settings on record: truncated SYK aa 360-635 0.5 nM, ATP 20 μM, peptide 5 μM, 30° C. 15 min; read-out: ENZYME_FILTRATION_IC50. The method, then: Determination of IC50 of Spleen Tyrosine Kinase (SYK) Inhibition:
SYK kinase assay is a standard kinase assay adapted to a 96 well plate format. This assay is performed in 96-well format for IC50 determination with […] which represented 10 half log dilutions and a 40 μL reaction volume. The assay measures the incorporation of radiolabeled ^33P γATP into an N-terminally biotinylated peptide substrate, derived from naturally occurring phosphoacceptor consensus sequence (Biotin-11aa DY*E). Phosphorylated products were detected upon termination of reactions with EDTA and the addition of Streptavidin coated beads.
Assay plates: 96-well MultiScreen 0.65 um filter plates (Millipore Cat. No.: MADVNOB10)
final concentration: 50 mM HEPES pH7.5
BSA: Bovine Serum Albumin Fraction V, fatty acid free (Roche Diagnostics GmbH, Cat. No. 9100221) diluted to a final concentration of 0.1%
Assay Dilution Buffer (ADB): 50 mM HEPES, 0.1 mM EGTA, 0.1 mM Na Vanadate, 0.1 mM β-glycerophosphate, 10 mM MgCl2, 1 mM DTT, 0.1% BSA, pH 7.5
Bead wash buffer: 10 g/L PBS (Phosphate buffered saline) with 2M NaCl+1% phosphoric acid.
DMSO and the mixture was incubated for 10 min at RT.
The kinase reaction was initiated by the addition of 10 μL 4× substrate cocktail containing the DYE peptide substrate [0 or 5 μM], ATP [20 μM] and ^33PγATP [2 μCi/r×n]. After incubation at 30° C. for 15 min, the reaction was terminated by the transfer of 25 μL of the reaction sample to a 96 well 0.65 μm Millipore MADVNOB membrane/plate containing 200 μL 5 mM EDTA and 20% Streptavidine coated beads in PBS.
After the last wash membrane/plates were transferred to an adaptor plate, heat dried for 15 min at 60° C., and 50 μL scintillation cocktail was added to each well and 4 h later the amount of radioactivity was counted in a top counter.
Consider `CC1CCCN1c1cccc(Nc2cc(-c3ccncc3)nn3ccnc23)n1` (centres unmarked) [Example I-81, [6-(2-Methyl-pyrrolidin-1-yl)-pyridin-2-yl]-(6-pyridin-4-yl-imidazo[1,2-b]pyridazin-8-yl)-amine], for which the IC50 stood at 188 nM.
Turning to `COc1cncc(-c2cc(Nc3cccc(N4CCCC4C)n3)c3nccn3n2)c1` (centres unmarked) [Example I-82, [6-(5-Methoxy-pyridin-3-yl)-imidazo[1,2-b]pyridazin-8-yl]-[6-(2-methyl-pyrrolidin-1-yl)-pyridin-2-yl]-amine], the IC50 turned out to be 59.9 nM.
Under `CC1CCCN1c1cccc(Nc2cc(-c3ccc(C(C)(C)C)cc3)nn3ccnc23)n1` (centres unmarked) [Example I-85, [6-(4-tert-Butyl-phenyl)-imidazo[1,2-b]pyridazin-8-yl]-[6-(2-methyl-pyrrolidin-1-yl)-pyridin-2-yl]-amine] stands 610 nM.
As to `CC1CCCN1c1cccc(Nc2cc(-c3cccc(O)c3)nn3ccnc23)n1` (centres unmarked) [Example I-86, 3-{8-[6-(2-Methyl-pyrrolidin-1-yl)-pyridin-2-ylamino]-imidazo[1,2-b]pyridazin-6-yl}-phenol], the IC50 is 102 nM.
For `CC1CCCN1c1cccc(Nc2cc(-c3cccc(OCCN4CCCCC4)c3)nn3ccnc23)n1` (centres unmarked) [Example I-87, [6-(2-Methyl-pyrrolidin-1-yl)-pyridin-2-yl]-{6-[3-(2-piperidin-1-yl-ethoxy)-phenyl]-imidazo[1,2-b]pyridazin-8-yl}-amine], the IC50 is 210 nM.
Under `CC1CCCN1c1cccc(Nc2cc(-c3cccc(OCCN4CCOCC4)c3)nn3ccnc23)n1` (centres unmarked) [Example I-88, [6-(2-Methyl-pyrrolidin-1-yl)-pyridin-2-yl]-{6-[3-(2-morpholin-4-yl-ethoxy)-phenyl]-imidazo[1,2-b]pyridazin-8-yl}-amine] stands 51 nM.
As for `CC1CCCN1c1cccc(Nc2cc(-c3ccc(OCCN4CCOCC4)cc3)nn3ccnc23)n1` (centres unmarked) [Example I-90, [6-(2-Methyl-pyrrolidin-1-yl)-pyridin-2-yl]-{6-[4-(2-morpholin-4-yl-ethoxy)-phenyl]-imidazo[1,2-b]pyridazin-8-yl}-amine], the IC50 was found to be 157 nM.
Under `CCN(CC)CCOc1cccc(-c2cc(Nc3cccc(N4CCCC4C)n3)c3nccn3n2)c1` (centres unmarked) [Example I-91, {6-[3-(2-Diethylamino-ethoxy)-phenyl]-imidazo[1,2-b]pyridazin-8-yl}-[6-(2-methyl-pyrrolidin-1-yl)-pyridin-2-yl]-amine] stands 261 nM; under `CCN(CC)CCOc1ccc(-c2cc(Nc3cccc(N4CCCC4C)n3)c3nccn3n2)cc1` (centres unmarked) [Example I-92, {6-[4-(2-Diethylamino-ethoxy)-phenyl]-imidazo[1,2-b]pyridazin-8-yl}-[6-(2-methyl-pyrrolidin-1-yl)-pyridin-2-yl]-amine], 60.6 nM; under `COc1ccc(Nc2cc(-c3cccc(C(=O)O)c3)nn3ccnc23)nc1OC` [Example I-95, 3-[8-(5,6-Dimethoxy-pyridin-2-ylamino)-imidazo[1,2-b]pyridazin-6-yl]-benzoic acid], 949 nM.
Under `CNC(=O)c1ccc(NC(=O)c2cccc(-c3cc(Nc4ccc(OC)c(OC)n4)c4nccn4n3)c2)cc1` [Example I-96, 3-(8-(5,6-Dimethoxypyridin-2-ylamino)imidazo[1,2-b]pyridazin-6-yl)-N-(4-(methylcarbamoyl)phenyl)benzamide] stands 103 nM.
